# Biological target: RAF proto-oncogene serine/threonine-protein kinase [Y340E,Y341E] (Human, UniProt P04049, Y340E/Y341E)
# Test: Biological Assays
# From the text: The activity of a compound according to the present invention can be assessed by well-known in vitro & in vivo methods. […] CRAF cDNA was subcloned as full length protein, with Y340E and Y341E activating mutations, into a baculovirus expression vector for Sf9 insect cell expression. h14-3-3 zeta cDNA was subcloned into a baculovirus expression vector for SF9 insect cell expression. Sf9 cells co-expressing both proteins were lysed and subjected to immobilized nickel chromatography and eluted with Imidazole. A second column (StrepII binding column) was used and eluted with desthiobiotin. Protein Tags were removed using Prescission enzyme and the protein was further purified using a flowthrough step to remove tags.C-Raf TR refers to a truncated C-Raf protein, a Δ1-324 deletion mutant. C-Raf FL refers to the full-length C-Raf protein.Full length MEK1 with an inactivating K97R ATP binding site mutation is utilized as a RAF substrate. The MEK1 cDNA was subcloned with an N-terminal (his)6 tag into a vector for E. Coli expression. The MEK1 substrate was purified from E. Coli lysate by nickel affinity chromatography followed by anion exchange. The final MEK1 preparation was biotinylated (Pierce EZ-Link Sulfo-NHS-LC-Biotin) and concentrated.Assay Materials: Assay buffer is 50 mM Tris, pH 7.5, 15 mM MgCl2, 0.01% Bovine Serum Albumin (BSA) and 1 mM dithiothreitol (DTT); Stop buffer is 60 mM ethylenediaminetetraacetic acid (EDTA) and 0.01% Tween 20; b-Raf (V600E), active; biotinylated Mek, kinase dead; Alpha Screen detection kit (available from PerkinElmer , #6760617R); Anti phospho-MEK1/2 (available from Cell Signaling Technology, Inc. #9121); 384 well low volume assay plates (White Greiner plates).Assay conditions: b-Raf (V600E) approximately 4 pM; c-Raf approximately 4 nM; biotinylated Mek, kinase dead approximately 10 nM; ATP 10 μM for BRAF (V600E) and 1 μM for CRAF; Pre-incubation time with compounds 60 minutes at room temperature; Reaction time 1 or 3 hours at room temperature.Assay protocol: Raf and biotinylated Mek (kinase dead) were combined at 2× final concentrations in assay buffer (50 mM Tris, pH 7.5, 15 mM MgCl2, 0.01% BSA and 1 mM DTT) and dispensed […] per well in assay plates (Greiner white 384 well assay plates #781207) containing […] of 40× of a Raf kinase inhibitor test compound diluted in 100% DMSO. The plate was incubated for 60 minutes at room temperature. The Raf kinase activity reaction was started by the addition of […] per well of 2×ATP diluted in assay buffer. After 3 hours (b-Raf(V600E)) or 1 hour (c-Raf). The reactions were stopped and the phosphorylated product was measured using a rabbit anti-p-MEK (Cell Signaling, #9121) antibody and the Alpha Screen IgG (ProteinA) detection Kit (PerkinElmer #6760617R), by the addition of […] to the well of a mixture of the antibody (1:2000 dilution) and detection beads (1:2000 dilution of both beads) in Stop/bead buffer (25 mM EDTA, 50 mM Tris, pH 7.5, 0.01% Tween20). The additions were carried out under dark conditions to protect the detection beads from light. A lid was placed on top of the plate and incubated for 1 hour at room temperature, after which the luminescence was read on a PerkinElmer Envision instrument.
# Chain of RAF proto-oncogene serine/threonine-protein kinase [Y340E,Y341E] (P04049 whole entry Y340E/Y341E): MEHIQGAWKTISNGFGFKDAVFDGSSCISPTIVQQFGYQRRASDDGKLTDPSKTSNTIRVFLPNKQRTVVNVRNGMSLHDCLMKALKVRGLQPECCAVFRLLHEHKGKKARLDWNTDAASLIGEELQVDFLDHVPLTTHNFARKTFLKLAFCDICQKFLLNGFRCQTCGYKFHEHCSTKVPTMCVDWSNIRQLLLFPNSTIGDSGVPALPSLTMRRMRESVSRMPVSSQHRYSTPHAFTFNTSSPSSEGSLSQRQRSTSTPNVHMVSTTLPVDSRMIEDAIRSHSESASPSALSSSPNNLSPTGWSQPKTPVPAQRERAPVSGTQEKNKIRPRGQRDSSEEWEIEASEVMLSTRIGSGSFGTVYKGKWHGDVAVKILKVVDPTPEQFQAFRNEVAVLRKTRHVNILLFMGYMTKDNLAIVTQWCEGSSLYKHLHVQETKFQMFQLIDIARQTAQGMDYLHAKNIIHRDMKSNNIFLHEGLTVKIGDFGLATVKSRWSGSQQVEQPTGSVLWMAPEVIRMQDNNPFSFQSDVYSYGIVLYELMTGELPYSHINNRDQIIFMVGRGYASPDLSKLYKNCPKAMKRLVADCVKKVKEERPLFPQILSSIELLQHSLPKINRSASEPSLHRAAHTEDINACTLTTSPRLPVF
row,Compound,IC50 [nM]
1,"Cc1ccc(NC(=O)c2ccnc(C(F)(F)F)c2)cc1-c1cnc2c(c1)N1CCOCC1C1(COC1)C2 (racemic) [US10377770, Example 153]",0.005
2,"CCN1C(=O)[C@@H]2COCCN2c2cc(-c3cc(NC(=O)c4ccnc(C(F)(F)F)c4)ccc3C)nnc21 [US10377770, Example 133]",0.011
3,"CCN1C(=O)[C@H]2COCCN2c2cc(-c3cc(NC(=O)c4ccnc(C(F)(F)F)c4)ccc3C)nnc21 [US10377770, Example 134]",0.016
4,"CCN1C(=O)[C@@H]2COCC[C@H]2c2cc(-c3cc(NC(=O)c4cnnc(C(F)(F)F)c4)ccc3C)cnc21 [US10377770, Example 257]",< 0.1
5,"Cc1ccc(NC(=O)c2ccnc(C(F)(F)F)c2)cc1-c1cnc2c(c1)[C@@H]1CCOC[C@H]1C(=O)N2CCO [US10377770, Example 258]",< 0.1
6,"Cc1ccc(NC(=O)c2ccnc(C(C)(F)F)c2)cc1-c1cnc2c(c1)[C@@H]1CCOC[C@H]1C(=O)N2CCO [US10377770, Example 267]",< 0.1
7,"Cc1ccc(NC(=O)c2ccnc(C(F)(F)F)c2)cc1-c1cnc2c(c1)C1CCOCCC1C(=O)N2CCO (centres undefined) [US10377770, Example 284]",< 0.1
8,"Cc1ccc(NC(=O)c2ccnc(C(C)(F)F)c2)cc1-c1cnc2c(c1)C1CCOCCC1C(=O)N2CCO (centres undefined) [US10377770, Example 286]",< 0.1
9,"CCN1C(=O)OC2COCCC2c2cc(-c3cc(NC(=O)c4ccnc(C(F)(F)F)c4)ccc3C)cnc21 (centres undefined) [US10377770, Example 297]",0.9
10,"CCN1C(=O)OC2COCCC2c2cc(-c3cc(NC(=O)c4cnnc(C(F)(F)F)c4)ccc3C)cnc21 (centres undefined) [US10377770, Example 301]",< 0.1
11,"Cc1ccc(NC(=O)c2ccnc(C(F)(F)F)c2)cc1-c1cnc2c(c1)N1CCOC[C@H]1CC(=O)N2CCO [US10377770, Example 333]",< 0.1
12,"Cc1ccc(NC(=O)c2ccnc(C(F)(F)F)n2)cc1-c1ccc2c(c1)N1CCOC[C@H]1[C@](F)(CO)C2 [US10377770, Example 388]",0.4
13,"Cc1ccc(NC(=O)c2cccc(C(F)(F)F)n2)cc1-c1ccc2c(c1)N1CCOC[C@H]1[C@](F)(CO)C2 [US10377770, Example 389]",0.5
14,"Cc1ccc(NC(=O)c2ccnc(C(F)(F)F)c2)cc1-c1ccc2c(c1)N1CCOC[C@@H]1[C@@](CO)(CF)C2 [US10377770, Example 405]",0.2

# Source: BindingDB's records for patent US10377770 (Novartis, 2019)
